Paper PMC12088000, “Design, synthesis and in silico molecular modelling studies of 2-Hydrazineyl-2-oxoethyl-4-(1H-pyrrol-1-yb) benzoate derivatives: a potent dual DHFR and ENR-reductase inhibitors with antitubercular, antibacterial and cytotoxic potential” (PLOS One, 2025)
≈ marks a conversion by molar mass, not a printed value.

Tests used:
E. coli ATCC 25922 = experiment: Antibacterial activity, broth microdilution (E. coli); conditions: Escherichia coli, ATCC25922, read-out: E. coli ATCC 25922 (Gram –ve) MIC, broth microdilution
Protocol: (§1) All twenty-eight molecules were evaluated for in vitro antimicrobial activities that were assessed against Gram +ve and Gram -ve strains.
(§2) The antibacterial inhibitory effects of all compounds were assessed using the broth microdilution method, with ciprofloxacin serving as the reference medication.

MtDHFR = MtDHFR (Mycobacterium tuberculosis, UniProt P9WNX1); experiment: biochemical; type: biochemical
Sequence of MtDHFR (P9WNX1 whole entry): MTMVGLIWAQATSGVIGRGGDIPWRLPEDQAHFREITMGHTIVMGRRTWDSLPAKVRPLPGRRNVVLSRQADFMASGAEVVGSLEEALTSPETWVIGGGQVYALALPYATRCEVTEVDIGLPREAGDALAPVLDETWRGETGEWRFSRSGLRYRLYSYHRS

S. aureus ATCC 29213 = experiment: Antibacterial activity, broth microdilution (S. aureus); conditions: Staphylococcus aureus, ATCC29213, read-out: S. aureus ATCC 29213 (Gram +ve) MIC
Protocol: as §1, §2

M. tuberculosis H37Rv = experiment: Antitubercular activity, Microplate Alamar Blue test (MABA); type: cell-based, Mycobacterium tuberculosis; conditions: Mycobacterium tuberculosis, H37RV, n = 3
[1] = molecular target: InhA enzyme from M. tuberculosis (Mycobacterium tuberculosis, UniProt P9WGR1); experiment: InhA inhibition assay; type: biochemical; conditions: read-out: % InhA Inhibition at 50 µM
Sequence of InhA enzyme from M. tuberculosis (P9WGR1 whole entry, looked up): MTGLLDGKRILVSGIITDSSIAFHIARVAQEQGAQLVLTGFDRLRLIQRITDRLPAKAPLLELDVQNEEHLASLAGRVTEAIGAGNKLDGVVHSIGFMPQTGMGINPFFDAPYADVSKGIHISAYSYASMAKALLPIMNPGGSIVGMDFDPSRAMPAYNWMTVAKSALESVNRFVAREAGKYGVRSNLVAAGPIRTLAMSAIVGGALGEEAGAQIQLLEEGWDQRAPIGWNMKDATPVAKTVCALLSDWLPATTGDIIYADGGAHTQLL

[2] = system: human lung cancer cell line A549; experiment: MTT-based cytotoxicity; type: cell-based; conditions: Homo sapiens, A549; MTT assay
Protocol: The cytotoxic effects of seventeen selected molecules were assessed against the A549 human lung adenocarcinoma cell line using the MTT assay. Cisplatin served as the reference drug for comparison. Lower IC50 values indicate higher cytotoxicity.
The cytotoxic activity (IC50) of selected compounds against A549 (lung adenocarcinoma) MV cell-lines was evaluated by performing cellular conversion of MTT [3-(4,5-dimethylthiazo-2-yl)-2,5-diphenyl-tetrazolium bromide] into a formazan product. This evaluation was conducted up to a concentration of 50 mg/mL using the Promega Cell Titre 96 non-radioactive cell proliferation assay, with cisplatin serving as the positive control. Cytotoxicity is commonly quantified by determining the IC50 value, which represents the quantity of a substance that reduces the optical density of treated cells by 50% compared to untreated cells, as measured by the MTT experiment. The results are presented as IC50 values (mean ± standard error of the mean (SEM) obtained from three separate and independent measurements.

Structure (SMILES)	MIC (E. coli ATCC 25922) [µg/mL]	IC50 (MtDHFR) [µM]	MtDHFR inhibition, in words, compared with trimethoprim (MtDHFR)	MIC (S. aureus ATCC 29213) [µg/mL]	MIC (M. tuberculosis H37Rv) [µg/mL]	inhibition at 50 µM [1] [%]	IC50 [2] [µg/mL]
O=C(OCC(=O)n1[nH]c(=O)c2c(Cl)c(Cl)c(Cl)c(Cl)c2c1=O)c1ccc(-n2cccc2)cc1 [Compound 4b, 2-oxo-2-(5,6,7,8-tetrachloro-1,4-dioxo-3,4-dihydrophthalazin-2(1H)-yl)ethyl 4-(1H-pyrrol-1-yl)benzoate]	0.8 (≈ 1.52 µM)	25	greater inhibition characteristics than trimethoprim	6.25 (≈ 11.9 µM)	1.6 (≈ 3.04 µM)	29	319 ± 0.4 (≈ 605 µM)
O=C(OCC(=O)n1[nH]c(=O)c2c(Br)c(Br)c(Br)c(Br)c2c1=O)c1ccc(-n2cccc2)cc1 [Compound 4c, 2-oxo-2-(5,6,7,8-tetrabromo-1,4-dioxo-3,4-dihydrophthalazin-2(1H)-yl)ethyl 4-(1H-pyrrol-1-yl)benzoate]	0.8 (≈ 1.13 µM)	21	greater inhibition characteristics than trimethoprim	6.25 (≈ 8.87 µM)	1.6 (≈ 2.27 µM)	51	287 ± 0.7 (≈ 407 µM)
O=C(OCC(=O)n1[nH]c(=O)c2ccccc2c1=O)c1ccc(-n2cccc2)cc1 [Compound 4a, 2-(1,4-dioxo-3,4-dihydrophthalazin-2(1H)-yl)-2-oxoethyl 4-(1H-pyrrol-1-yl)benzoate]	3.12 (≈ 8.01 µM)	23	greater inhibition characteristics than trimethoprim	12.5 (≈ 32.1 µM)	1.6 (≈ 4.11 µM)	43	315 ± 0.3 (≈ 809 µM)
CC(=NNC(=O)COC(=O)c1ccc(-n2cccc2)cc1)c1ccc(F)cc1 [Compound 5l, 2-(2-(1-(4-fluorophenyl)ethylidene)hydrazinyl)-2-oxoethyl 4-(1H-pyrrol-1-yl)benzoate]	3.12 (≈ 8.22 µM)	65	moderate inhibition	12.5 (≈ 32.9 µM)	1.6 (≈ 4.22 µM)	46	241 ± 0.6 (≈ 635 µM)
CC(=NNC(=O)COC(=O)c1ccc(-n2cccc2)cc1)c1ccc(O)cc1 [Compound 5j, 2-(2-(1-(4-hydroxyphenyl)ethylidene)hydrazinyl)-2-oxoethyl 4-(1H-pyrrol-1-yl)benzoate]	3.12 (≈ 8.27 µM)	70	moderate inhibition	12.5 (≈ 33.1 µM)	1.6 (≈ 4.24 µM)	32	255 ± 0.3 (≈ 676 µM)
CC(=NNC(=O)COC(=O)c1ccc(-n2cccc2)cc1)c1cccc(Br)c1 [Compound 5f, 2-(2-(1-(3-bromophenyl)ethylidene)hydrazinyl)-2-oxoethyl 4-(1H-pyrrol-1-yl)benzoate]	1.6 (≈ 3.63 µM)	153	–	3.12 (≈ 7.09 µM)	1.6 (≈ 3.63 µM)	43	275 ± 0.4 (≈ 625 µM)
CC(=NNC(=O)COC(=O)c1ccc(-n2cccc2)cc1)c1ccccc1 [Compound 5a, 2-oxo-2-(2-(1-phenylethylidene)hydrazinyl)ethyl 4-(1H-pyrrol-1-yl)benzoate]	1.6 (≈ 4.43 µM)	95	–	12.5 (≈ 34.6 µM)	1.6 (≈ 4.43 µM)	26	225 ± 0.3 (≈ 623 µM)
O=C(COC(=O)c1ccc(-n2cccc2)cc1)NN=Cc1ccccc1 [Compound 6a, 2-(2-benzylidenehydrazinyl)-2-oxoethyl 4-(1H-pyrrol-1-yl)benzoate]	1.6 (≈ 4.61 µM)	132	–	12.5 (≈ 36 µM)	1.6 (≈ 4.61 µM)	13	244 ± 0.8 (≈ 702 µM)
